Measured values from ChEMBL document CHEMBL1857833, “Screening and optimization of specific chemical series against human African Trypanosomiasis (HAT)”.
In brackets after ≈: the same amount, converted by molar mass. Several values for one entry are separate records, joined by “and”; a condition that tells them apart may be missing. Identical values can stand only once.

Columns and labels:
[1] = (§1) DNDI: Cytotoxicity against L929 mouse fibroblasts, CYTO-SP, 24 hour; type: toxicity, cell-based; settings: mouse, L929 mouse fibroblasts
[2] = test system: Trypanosoma brucei; assay: DNDI: Inhibition of Human African Trypanosomiasis, SBRI 427, in vitro; type: functional, organism-based
[3] = DNDI: Lipophilicity measured in Chromatographic hydrophobicity index (CHI) assay, pH 7.4; type: physicochemical; settings: buffer
[4] = DNDI: Solubility in phosphate buffered saline at pH7.4 measured by nephelometry at room temperature (NEPH-RT); type: physicochemical; settings: pH 7.4
[5] = human, microsomes, 1 µM
Description: (§3) DNDI: half life in human liver microsomes at a concentration of 1uM

[6] = human, microsomes, 1 µM; remark: listed apart in the source
Description: (§4) DNDI: in vitro intrinsic clearance in human liver microsomes at a concentration of 1uM

[7] = mouse, microsomes, 1 µM
Description: (§5) DNDI: in vitro intrinsic clearance in mouse liver microsomes at a concentration of 1uM

[8] = in vitro; settings: human, liver microsomes, t (1 / 2)
Description: as §3

[9] = in vitro; settings: human, liver microsomes, CLint in vitro
Description: as §4

[10] = in vitro; settings: mouse, liver microsomes
Description: as §5

[11] = in vitro; settings: mouse, liver microsomes, t (1 / 2)
Description: DNDI: half life in mouse liver microsomes at a concentration of 1uM

[12] = test system: L929; assay: as §1; type: toxicity, cell-based; settings: l929
[13] = DNDI: Cytotoxicity against L929 mouse fibroblasts, 72 hour.; type: toxicity, cell-based; settings: mouse, L929 mouse fibroblasts
[14] = test system: Trypanosoma brucei; assay: DNDI: Inhibition of Human African Trypanosomiasis, Cross 22, in vitro; type: functional, organism-based
[15] = test system: Trypanosoma brucei; assay: DNDI: Inhibition of Human African Trypanosomiasis, EATRO 110, in vitro; type: functional, organism-based
[16] = DNDI: half life in human liver microsomes at a concentration of 10uM; type: ADME, Microsome
[17] = DNDI: in vitro intrinsic clearance in human liver microsomes at a concentration of 10uM; type: ADME, Microsome
[18] = DNDI: in vitro intrinsic clearance in mouse liver microsomes at a concentration of 10uM; type: ADME, Microsome; settings: read-out: CLint in vitro
[19] = DNDI: half life in mouse liver microsomes at a concentration of 10uM; type: ADME, Microsome
[20] = DNDI: Solubility in phosphate buffered saline at pH7.4 measured by optical density (turbidimetry) at room temperature (OD-RT); type: physicochemical; settings: pH 7.4
[21] = molecular target: T1, MDR1 (ABCB1) (Homo sapiens, UniProt P08183); assay: DNDI: % of compound recovered from apical to basolateral permeability assay in MDCK cells transfected with human MDR1 after 60 mins at a concentration of 3uM; type: ADME, cell-based, Canis lupus familiaris; settings: dog
T1 sequence (P08183 whole entry): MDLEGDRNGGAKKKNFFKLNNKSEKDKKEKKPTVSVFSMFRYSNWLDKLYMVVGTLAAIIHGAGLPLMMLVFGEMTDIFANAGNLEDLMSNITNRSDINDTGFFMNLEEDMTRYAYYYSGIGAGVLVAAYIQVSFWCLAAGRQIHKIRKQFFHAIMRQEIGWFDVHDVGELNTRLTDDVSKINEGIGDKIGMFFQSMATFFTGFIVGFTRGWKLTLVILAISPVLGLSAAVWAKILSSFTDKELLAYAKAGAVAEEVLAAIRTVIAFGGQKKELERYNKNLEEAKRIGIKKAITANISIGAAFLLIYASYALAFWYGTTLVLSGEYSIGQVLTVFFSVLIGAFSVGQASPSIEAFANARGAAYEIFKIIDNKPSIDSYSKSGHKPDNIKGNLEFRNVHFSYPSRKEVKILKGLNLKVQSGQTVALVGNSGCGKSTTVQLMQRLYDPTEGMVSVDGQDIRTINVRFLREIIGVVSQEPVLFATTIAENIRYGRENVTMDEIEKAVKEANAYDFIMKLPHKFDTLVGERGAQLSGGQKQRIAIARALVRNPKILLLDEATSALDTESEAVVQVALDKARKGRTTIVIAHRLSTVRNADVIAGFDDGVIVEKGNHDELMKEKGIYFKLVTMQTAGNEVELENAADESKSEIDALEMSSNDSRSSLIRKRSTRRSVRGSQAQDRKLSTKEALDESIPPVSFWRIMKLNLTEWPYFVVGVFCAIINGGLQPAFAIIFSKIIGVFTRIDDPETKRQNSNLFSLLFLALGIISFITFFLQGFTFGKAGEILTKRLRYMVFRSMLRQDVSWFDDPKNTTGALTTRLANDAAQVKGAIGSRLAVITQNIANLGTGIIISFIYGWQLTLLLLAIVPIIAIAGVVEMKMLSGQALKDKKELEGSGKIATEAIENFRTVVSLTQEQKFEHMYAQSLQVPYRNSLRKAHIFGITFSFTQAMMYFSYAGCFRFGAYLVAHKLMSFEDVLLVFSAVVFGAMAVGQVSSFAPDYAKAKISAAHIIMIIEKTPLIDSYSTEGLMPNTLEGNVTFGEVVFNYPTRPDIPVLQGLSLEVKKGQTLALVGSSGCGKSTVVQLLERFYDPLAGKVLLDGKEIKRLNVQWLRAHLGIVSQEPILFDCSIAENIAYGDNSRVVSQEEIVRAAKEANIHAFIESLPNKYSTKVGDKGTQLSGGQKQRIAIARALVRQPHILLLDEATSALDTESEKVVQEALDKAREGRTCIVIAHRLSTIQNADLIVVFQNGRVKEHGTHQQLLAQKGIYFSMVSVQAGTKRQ

[22] = molecular target: T2, ATP-dependent translocase ABCB1 (Homo sapiens, UniProt P08183); assay: DNDI: Apparent permeability from apical to basolateral side of the MDCK cell transfected with human MDR1after 60 mins at a concentration of 3uM; type: ADME, cell-based, Canis lupus familiaris; settings: dog, mdck, 1 h, 3 µM
T2 sequence (P08183 whole entry): as above

[23] = molecular target: T2, ATP-dependent translocase ABCB1; assay: DNDI: Apparent permeability from basolateral to apical side of the MDCK cell transfected with human MDR1after 60 mins at a concentration of 3uM; type: ADME, cell-based, Canis lupus familiaris; settings: dog, 1 h
[24] = molecular target: T1, MDR1 (ABCB1); assay: DNDI: % of compound recovered from basolateral to apical permeability assay in MDCK cells transfected with human MDR1 after 60 mins at a concentration of 3uM; type: ADME, cell-based, Canis lupus familiaris; settings: dog
[25] = molecular target: T2, ATP-dependent translocase ABCB1; assay: (§2) DNDI: Efflux ratio for permeability from basolateral to apical side to apical to basolateral side of MDCK cells transfected with human MDR1; type: ADME, cell-based, Canis lupus familiaris; settings: dog, mdck
[26] = test system: Trypanosoma brucei; assay: DNDI: Mean survival time in days (MSD) of mice after intraperitoneal injection of Human African Trypanosomiasis (HAT), EATRO 110, at 0.5 mg/kg/day for 4 days.; type: functional, Mus musculus
[27] = test system: Trypanosoma brucei; assay: DNDI: Mean survival time in days (MSD) of mice after intraperitoneal injection of Human African Trypanosomiasis (HAT), EATRO 110, in vivo at 20 mg/kg/day for 4 days.; type: functional, Mus musculus
[28] = test system: Trypanosoma brucei; assay: DNDI: Mean survival time in days (MSD) of mice after intraperitoneal injection of Human African Trypanosomiasis (HAT), EATRO 110, in vivo at 1.25 mg/kg/day for 4 days.; type: functional, Mus musculus
[29] = test system: Trypanosoma brucei; assay: DNDI: Mean survival time in days (MSD) of mice after intraperitoneal injection of Human African Trypanosomiasis (HAT), EATRO 110, in vivo at 2.5 mg/kg/day for 4 days.; type: functional, Mus musculus
[30] = test system: Trypanosoma brucei; assay: DNDI: Mean survival time in days (MSD) of mice after intraperitoneal injection of Human African Trypanosomiasis (HAT), EATRO 110, in vivo at 12.5 mg/kg/day for 4 days.; type: functional, Mus musculus
[31] = test system: Trypanosoma brucei; assay: DNDI: Mean survival time in days (MSD) of mice after intraperitoneal injection of Human African Trypanosomiasis (HAT), EATRO 110, in vivo at 5 mg/kg/day for 4 days.; type: functional, Mus musculus
[32] = molecular target: T1, MDR1 (ABCB1); assay: DNDI: % of compound recovered from apical to basolateral permeability assay in MDCK cells transfected with human MDR1; type: ADME, cell-based, Canis lupus familiaris; settings: dog
[33] = molecular target: T1, MDR1 (ABCB1); assay: DNDI: Apparent permeability from apical to basolateral side of the MDCK cell transfected with human MDR1; type: ADME, cell-based, Canis lupus familiaris; settings: dog
[34] = molecular target: T1, MDR1 (ABCB1); assay: DNDI: Apparent permeability from basolateral to apical side of the MDCK cell transfected with human MDR1 after 60 mins at a concentration of 3uM; type: ADME, cell-based, Canis lupus familiaris; settings: dog
[35] = molecular target: T1, MDR1 (ABCB1); assay: DNDI: % of compound recovered from basolateral to apical permeability assay in MDCK cells transfected with human MDR1; type: ADME, cell-based, Canis lupus familiaris; settings: dog
[36] = molecular target: T1, MDR1 (ABCB1); assay: as §2; type: ADME, cell-based, Canis lupus familiaris; settings: dog, read-out: B-A/A-B
[37] = Trypanosoma brucei, SBRI 427, read-out: IC50

IC50 [2, 37] | chromatographic logD [3] | solubility kinetic [4] | CLint in vitro [7] | half-life at 1 µM [11] | IC50 [14] | IC50 [15] | Compound | IC50 at 24 h [1] | IC50 [12] | IC50 at 72 h [13] | IC50 [2] | microsomal CLint at 10 µM [18] | half-life at 10 µM [19] | solubility kinetic [20] | other results
4.47 µg/mL (≈ 17 µM) | 2.93 | 13 µM (≈ 3.41 µg/mL) | 224 µL/min/mg | 4 min |  |  | COc1ccc(/C(CNC2CCCCC2)=N/O)cc1 | > 50 µg/mL |  |  |  |  |  |  | t (1 / 2) [5]: 11 min; CLint in vitro [6]: 75 µL/min/mg; half-life at 1 µM [8]: 13 min; microsomal CLint at 1 µM [9]: 66 µL/min/mg; microsomal CLint at 1 µM [10]: 235 µL/min/mg
1.23 µg/mL (≈ 3.59 µM) |  |  | 50 µL/min/mg | 17 min | 0.79 µg/mL (≈ 2.31 µM) | 1.03 µg/mL (≈ 3.01 µM) | CCOc1ccc(-c2nc(CNC3CC(C)CC(C)(C)C3)co2)cc1 (stereo unspecified) | 44.1 µg/mL (≈ 129 µM) | 29.3 µg/mL (≈ 85.6 µM) | < 3.13 µg/mL | 0.79 µg/mL and 1.06 µg/mL and 1.41 µg/mL and 0.84 µg/mL |  |  |  | 
1.28 µg/mL (≈ 3.51 µM) | 4.85 | 100 µM (≈ 36.4 µg/mL) |  |  |  |  | CN(C)CCNc1nc(Oc2cccc3ccccc23)c2sccc2n1 |  |  | 3.48 µg/mL (≈ 9.55 µM) |  |  |  |  | recovery at 1 h, 3 µM [21]: 77.5%; Papp [22]: 11.62 ×10⁻⁶ cm/s; Papp [23]: 21.11 ×10⁻⁶ cm/s; recovery at 1 h, 3 µM [24]: 110%; Calculated Ratio [25]: 0.45

More lines, now with the values behind:

Compound | IC50 [2, 37] | chromatographic logD [3] | solubility kinetic [4] | CLint in vitro [7] | half-life at 1 µM [11] | IC50 [14] | IC50 [15] | IC50 at 24 h [1] | IC50 [12] | IC50 at 72 h [13] | IC50 [2] | microsomal CLint at 10 µM [18] | half-life at 10 µM [19] | solubility kinetic [20] | other results
CCOc1ccc(-c2nc(CNC3C[C@@H]4C[C@H]([C@H]3C)C4(C)C)co2)cc1 (stereo partly specified) |  | 5.22 |  | 207 µL/min/mg | 4 min | 1.72 µg/mL (≈ 4.85 µM) | 1.16 µg/mL (≈ 3.27 µM) | > 50 µg/mL | 28.6 µg/mL (≈ 80.7 µM) | 3.51 µg/mL (≈ 9.9 µM) | 1.07 ug/ml [middle of 5 runs] | 121 µL/min/mg | 24 min | 6.3 µM (≈ 2.23 µg/mL) | half-life at 10 µM [16]: 174 min; CLint in vitro [17]: 17 µL/min/mg
COc1ccccc1Oc1ncccc1/C(=N\O)NC1CCCCC1 | 0.78 µg/mL (≈ 2.28 µM) | 3.77 |  |  |  |  | 1.56 µg/mL (≈ 4.57 µM) | > 50 µg/mL |  |  |  | 138 µL/min/mg | 21 min | 25 µM (≈ 8.54 µg/mL) | MSD [26]: 4 days; MSD [27]: 4.3 days; MSD [28]: 4 days; MSD [29]: 4 days; MSD [30]: 4 days; MSD [31]: 4 days; recovery [32]: 77%; Papp A→B [33]: 18.4 ×10⁻⁶ cm/s; Papp B→A at 1 h, 3 µM [34]: 48.3 ×10⁻⁶ cm/s; recovery [35]: 84%; efflux ratio [36]: 2.6
